Patent US20190185479A1, “BICYCLIC NITROGENATED HETEROCYCLIC COMPOUND” (MITSUBISHI TANABE PHARMA CORPORATION, priority 2016, published 2019)

Target: T1, Human PDE7B (hPDE7B) (Homo sapiens, UniProt Q9NP56)
T1 construct: made in house; host or cells: COS-7 cells
Test: Measurement of PDE7 inhibitory activity (Experimental Example 1; residual cAMP, LANCE Ultra cAMP TR-FRET)
Type: biochemical
Details: for IC50: cAMP 3 nmol/L, room temperature 60 minutes; for inhibition at 1 µM: compound at 1 μmol/L
Protocol: Human PDE7B (hPDE7B) was isolated from COS-7 cells transfected with plasmids encoding hPDE7B according to the method described in a reference, Biochemical and Biophysical Research Communication, 271, p. 575-583 (2000). The resulting enzyme solution was used in the PDE assay.
PDE7 inhibitory assay was carried out by reacting the mixture of a compound, hPDE7B, and cAMP, and measuring the residual cAMP by a detection method using LANCE (registered trademark) Ultra cAMP Detection Kit (ParkinElmer). The compound was dissolved in DMSO, and diluted so that the concentration would become 50 times of the final concentration. The hPDE7B and cAMP were diluted with an assay buffer (50 mmol/L Tris-HCl, 1 mmol/L MgCl2, 0.1% BSA, 0.5 mmol/L DTT, pH7.5) so that the hPDE7B would have an appropriate enzyme activity and the concentration of cAMP would become 6 nmol/L. To a 96 well plate were added the compound (2 μL) (DMSO final concentration: 2%), hPDE7B (48 μL), and cAMP (50 μL) (concentration at the reaction: 3 nmol/L), and the resulting mixture was reacted at room temperature for 60 minutes. The reaction solution (20 μL) was subjected to a TR-FRET method according to the protocol specified by the kit to measure the concentration of the residual cAMP. In the assay, to a tracer solution specified by the kit was added 0.5 mmol/L of 3-isobutyl-1-methylxanthine (IBMX, nonselective PDE inhibitor) in order to stop the PDE enzyme reaction after the completion of reaction until the measurement.
The reaction without a compound was defined as “0% inhibition”, the reaction without hPDE7B was defined as “100% inhibition”, and the inhibition rate of the compound was calculated by the following equation.
Inhibition rate of compound (%)={(Residual cAMP concentration at the addition of compound−Residual cAMP concentration in 0% inhibition)/(Residual cAMP concentration in 100% inhibition−Residual cAMP concentration in 0% inhibition)}×100

T1 sequence (Q9NP56 whole entry): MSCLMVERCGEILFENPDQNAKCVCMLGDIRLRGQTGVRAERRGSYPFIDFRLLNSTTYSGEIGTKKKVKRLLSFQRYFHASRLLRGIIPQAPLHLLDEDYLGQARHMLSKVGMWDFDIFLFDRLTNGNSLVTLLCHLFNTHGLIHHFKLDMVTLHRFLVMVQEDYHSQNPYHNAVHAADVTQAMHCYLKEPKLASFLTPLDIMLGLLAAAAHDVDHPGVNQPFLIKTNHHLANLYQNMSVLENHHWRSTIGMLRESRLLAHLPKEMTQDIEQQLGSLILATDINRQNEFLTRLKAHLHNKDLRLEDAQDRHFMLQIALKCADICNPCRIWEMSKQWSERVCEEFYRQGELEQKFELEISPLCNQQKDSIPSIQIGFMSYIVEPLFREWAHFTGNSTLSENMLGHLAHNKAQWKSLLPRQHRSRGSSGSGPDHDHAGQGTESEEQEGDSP

Compound | IC50 [nM] | inhibition at 1 µM [%]
Nc1ncnc2c1nnn2C1CCCC(CC(F)(F)F)C1 (stereo not shown) [Example 120] | 380 | –
CC1CCC(F)(F)CC1c1nnc2c(N)ncnn12 (single isomer, unassigned) [Example 247, 3-(cis-5,5-difluoro-2-methylcyclohexyl) [1,2,4]triazolo[3,4-f][1,2,4]triazin-8-amine] | 629 | –
Nc1ncnc2c1nnn2-c1cccc(C(=O)NCc2ccccc2)c1 [Example 131] | 250 | –
CC(C)(C)OC(=O)N1CCC[C@@H](n2nnc3c(N)ncnc32)C1 [Example 12, tert-butyl (3R)-3-(7-amino-3H-[1,2,3]triazolo[4,5-d]pyrimidin-3-yl)piperidine-1-carboxylate] | 620 | –
Nc1nccn2c(N3CCC4(CC3)CC4)nnc12 [Example 78] | 140 | –
CC1CC(C)CN(c2nnc3c(N)nccn23)C1 (racemic) [Example 53, 3-[trans-3,5-dimethylpiperidin-1-yl][1,2,4]triazolo[4,3-a]pyrazin-8-amine] | 20 | –
CC1(C)CCCC(c2nnc3c(N)ncnn23)C1 (racemic) [Example 73, 3-(3,3-dimethylcyclohexyl) [1,2,4]triazolo[3,4-f][1,2,4]triazin-8-amine] | 1 | –
Nc1ncnc2c1nnn2C1CCc2ccccc2C1 (stereo not shown) [Example 34] | 460 | –
CC(c1ccccc1)n1nnc2c(N)ncnc21 (stereo not shown) [Example 15] | 570 | –
CC1CCC(F)(F)CC1c1nnc2c(N)ncnn12 (racemic) [Example 76, 3-(cis-5,5-difluoro-2-methylcyclohexyl) [1,2,4]triazolo[3,4-f][1,2,4]triazin-8-amine] | < 10 | –
Nc1ncnc2c1nnn2-c1c(F)cccc1F [Example 14] | 560 | –
CC1CC(n2nnc3c(N)ncnc32)CC(C)(C)C1 (stereo not shown) [Example 108] | 230 | –
Nc1nccn2c(N3CCCC(F)(F)C3)nnc12 [Example 47] | 300 | –
CC1(C)CC(c2nnc3c(N)nccn23)CC(F)(F)C1 (single isomer, unassigned) [Example 178, 3-(3,3-difluoro-5,5-dimethylcyclohexyl) [1,2,4]triazolo[4,3-a]pyrazin-8-amine] | > 1000 | 33
CC1CCC(C(F)(F)F)CC1c1nnc2c(N)nccn12 (single isomer, unassigned) [Example 173, 3-[2-methyl-5-(trifluoromethyl)cyclohexyl][1,2,4]triazolo[4,3-a]pyrazin-8-amine] | > 1000 | 3
C[C@@H]1C[C@H](C)C[C@@H](n2nnc3c(N)ncnc32)C1 [Example 105] | 310 | –
Nc1ncnc2c1nnn2C1CCCCC1(F)F (single isomer, unassigned) [Example 114, 3-(2,2-difluorocyclohexyl)-3H-[1,2,3]triazolo[4,5-d]pyrimidin-7-amine] | 190 | –
Nc1nccn2c(-c3ccccc3)nnc12 [Example 170] | 270 | –
Nc1ncnc2c1nnn2C1CCCCC1F (stereo not shown) [Example 112] | 170 | –
CC1CC(c2nnc3c(N)nccn23)CC(F)(F)C1 (single isomer, unassigned) [Example 215] | 530 | –
CC1CCC(C(F)(F)F)CC1c1nnc2c(N)nccn12 (racemic) [Example 151, 3-[2-methyl-5-(trifluoromethyl)cyclohexyl][1,2,4]triazolo[4,3-a]pyrazin-8-amine] | 10 | –
CCOc1nc(N)c2nnn(C3CCCCC3)c2n1 [Example 93, 3-cyclohexyl-5-ethoxy-3H-[1,2,3]triazolo[4,5-d]pyrimidin-7-amine] | 20 | –
Nc1ncnn2c(C3CCCC(C(F)(F)F)C3)nnc12 (single isomer, unassigned) [Example 245, 3-[cis-3-(trifluoromethyl)cyclohexyl][1,2,4]triazolo[3,4-f][1,2,4]triazin-8-amine] | 850 | –
Nc1ncnc2c1nnn2[C@H]1CC[C@H](C(F)(F)F)CC1 [Example 103] | 450 | –
Nc1ncnc2c1nnn2-c1cccc(C(F)(F)F)c1 [Example 130] | 490 | –
Nc1ncnc2c1nnn2C1CCCc2ccccc21 (stereo not shown) [Example 33] | 520 | –
CC1(C)CC(c2nnc3c(N)nccn23)CC(F)(F)C1 (racemic) [Example 156, 3-(3,3-difluoro-5,5-dimethylcyclohexyl) [1,2,4]triazolo[4,3-a]pyrazin-8-amine] | 30 | –
Nc1ncnc2c1nnn2C1CCCCC1(F)F (racemic) [Example 113, 3-(2,2-difluorocyclohexyl)-3H-[1,2,3]triazolo[4,5-d]pyrimidin-7-amine] | 30 | –
CC(C)(C)OC(=O)N1CCCC(n2nnc3c(N)ncnc32)C1 (stereo not shown) [Example 11] | 400 | –
Nc1ncnc2c1nnn2[C@@H]1CCCN(c2ccccc2)C1 [Example 136, 3-[(3R)-1-phenylpiperidin-3-yl]-3H-[1,2,3]triazolo[4,5-d]pyrimidin-7-amine] | 680 | –

The remaining lines, values ahead:

IC50 [nM] | inhibition at 1 µM [%] | Compound
520 | – | CCC1CCN(c2nnc3c(N)nccn23)CC1 [Example 50]
220 | – | Nc1nccn2c(N3CCCCC3C(F)(F)F)nnc12 (stereo not shown) [Example 39]
130 | – | Nc1nccn2c(C3CCCC4(CC4)C3)nnc12 (single isomer, unassigned) [Example 209, 3-(spiro[2,5]oct-5-yl) [1,2,4]triazolo[4,3-a]pyrazin-8-amine]
730 | – | Nc1nccn2c(C3CC(F)(F)C3)nnc12 [Example 84, 3-(3,3-difluorocyclobutyl)-[1,2,4]triazolo[4,3-a]pyrazin-8-amine]
180 | – | Nc1nccn2c(C3CCCCN3c3ncccn3)nnc12 (racemic) [Example 250, 3-(1-(pyrimidin-2-yl)piperidin-2-yl)-[1,2,4]triazolo[4,3-a]pyrazin-8-amine]
170 | – | Nc1nccn2c([C@@H]3C[C@@H]4CC[C@H]3C4)nnc12 [Example 162]
304 | – | C[C@@H]1CCC[C@@H](C)N1c1nnc2c(N)nccn12 [Example 63]
20 | – | CC1CCC(C)N(c2nnc3c(N)nccn23)C1 (racemic) [Example 58, 3-(2,5-dimethylpiperidin-1-yl) [1,2,4]triazolo[4,3-a]pyrazin-8-amine]
240 | – | CC1CCC(C)N(c2nnc3c(N)nccn23)C1 (racemic) [Example 59, 3-(2,5-dimethylpiperidin-1-yl) [1,2,4]triazolo[4,3-a]pyrazin-8-amine]
540 | – | Nc1nccn2c(N3CCCC(C(F)(F)F)C3)nnc12 (single isomer, unassigned) [Example 225]
220 | – | Nc1nccn2c([C@@H]3[C@H]4C=CC[C@H]43)nnc12 (relative stereo) [Example 163, 3-[(1S*,5R*,6S*)-bicyclo[3.1.0]hex-2-en-6-yl][1,2,4]triazolo[4,3-a]pyrazin-8-amine]
10 | – | CC1(C)CCCC(c2nnc3c(N)nccn23)C1 (racemic) [Example 144, 3-(3,3-dimethylcyclohexyl) [1,2,4]triazolo[4,3-a]pyrazin-8-amine]
50 | – | C[C@H]1CCC[C@H](c2nnc3c(N)nccn23)C1 (racemic) [Example 143, 3-(trans-3-methylcyclohexyl) [1,2,4]triazolo[4,3-a]pyrazin-8-amine]
107 | – | C[C@H]1CCC[C@H](C)N1c1nnc2c(N)nccn12 [Example 64]
